Data as given in patent US20230257354A1, “NOVEL HETEROCYCLIC COMPOUNDS” (Hoffmann-La Roche Inc., priority 2020, published 2023).
Structures can show the parent of a compound that is named as a salt.

Tested on: Acinetobacter baumannii ATCC17978
Assay: Antimicrobial susceptibility testing, 90% growth inhibitory concentration (IC90) determination, ATCC17978
Format: cell-based
Conditions: Iso-Sensitest broth, OD 600 nm over 16 h, 35±2° C., read-out: ATCC 17978 IC90
How it was run: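 Serial twofold dilutions (e.g. 50 to 0.097 μM final) in Iso-Sensitest broth, inoculum ~5×10^(5) CFU/ml, incubated 35±2 °C for 16 h. OD600 read every 20 min; growth inhibition calculated during logarithmic growth to derive the concentration inhibiting 90% of growth, in μM.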

Row | SMILES | IC90
1 | COc1ccc(-c2cnc(C(=O)Nc3ccc(C(=O)NCCNC(=O)N[C@@H]4CNC[C@H]4O)c(C)c3)n2C)c(F)c1F [Example B28, 5-(2,3-difluoro-4-methoxy-phenyl)-N-[4-[2-[[(3R,4R)-4-hydroxypyrrolidin-3-yl]carbamoylamino]ethylcarbamoyl]-3-methyl-phenyl]-1-methyl-imidazole-2-carboxamide;formic acid] | 510 nM
2 | CCc1cc(NC(=O)c2ncc(-c3ccc(OC)c(F)c3F)n2C)ccc1C(=O)NCCOCCN [Example A13, N-[4-[2-(2-aminoethoxy)ethylcarbamoyl]-3-ethyl-phenyl]-5-(2,3-difluoro-4-methoxy-phenyl)-1-methyl-imidazole-2-carboxamide;formic acid] | 590 nM
3 | COc1ccc(-c2cnc(C(=O)Nc3ccc(C(=O)NCCN4CCC(O)C4)c(Cl)c3)n2C)c(F)c1F (centres unmarked) [Example A28, N-[3-chloro-4-[2-(3-hydroxypyrrolidin-1-yl)ethylcarbamoyl]phenyl]-5-(2,3-difluoro-4-methoxy-phenyl)-1-methyl-imidazole-2-carboxamide] | 1200 nM
4 | CCc1cc(NC(=O)c2ncc(-c3ccc(OC)c(F)c3F)n2C)ccc1C(=O)NCCCOCCN(C)C [Example A30, 5-(2,3-difluoro-4-methoxy-phenyl)-N-[4-[3-[2-(dimethylamino)ethoxy]propylcarbamoyl]-3-ethyl-phenyl]-1-methyl-imidazole-2-carboxamide] | 250 nM
5 | CCc1cc(NC(=O)c2ncc(-c3ccc(OC(F)F)c(F)c3F)n2C)ccc1C(=O)NCCCNC(=O)C1CCN(CC2CNC2)CC1 [Example C3, 1-(azetidin-3-ylmethyl)-N-[3-[[4-[[5-[4-(difluoromethoxy)-2,3-difluoro-phenyl]-1-methyl-imidazole-2-carbonyl]amino]-2-ethyl-benzoyl]amino]propyl]piperidine-4-carboxamide;formic acid] | 450 nM
6 | CCc1cc(NC(=O)c2ncc(-c3ccc(OC)cc3Cl)n2C)ccc1C(=O)NCCOCCN [Example A16, N-[4-[2-(2-aminoethoxy)ethylcarbamoyl]-3-ethyl-phenyl]-5-(2-chloro-4-methoxy-phenyl)-1-methyl-imidazole-2-carboxamide;hydrochloride] | 1500 nM
7 | Cc1cc(NC(=O)c2ncc(-c3ccc(OCC#N)c(F)c3F)n2C)ccc1C(=O)NCCCN1CCNCC1 [Example A12, 5-[4-(cyanomethoxy)-2,3-difluoro-phenyl]-1-methyl-N-[3-methyl-4-(3-piperazin-1-ylpropylcarbamoyl)phenyl]imidazole-2-carboxamide;2,2,2-trifluoroacetic acid] | 340 nM
8 | CCc1cc(NC(=O)c2ncc(-c3ccc(OC(F)F)c(F)c3F)n2C)ccc1C(=O)NCCOCCN [Example A17, N-[4-[2-(2-aminoethoxy)ethylcarbamoyl]-3-ethyl-phenyl]-5-[4-(difluoromethoxy)-2,3-difluoro-phenyl]-1-methyl-imidazole-2-carboxamide;hydrochloride] | 400 nM
9 | COc1ccc(-c2cnc(C(=O)Nc3ccc(C(=O)NCC4CCNCC4)c(Cl)c3)n2C)c(F)c1F [Example A5, N-[3-chloro-4-(4-piperidylmethylcarbamoyl)phenyl]-5-(2,3-difluoro-4-methoxy-phenyl)-1-methyl-imidazole-2-carboxamide;formic acid] | 550 nM
10 | CC[C@]1(O)CN[C@@H](C(=O)NCCNC(=O)c2ccc(NC(=O)c3ncc(-c4ccc(OC)c(F)c4F)n3C)cc2C)C1 [Example B27, 5-(2,3-difluoro-4-methoxy-phenyl)-N-[4-[2-[[(2R,4R)-4-ethyl-4-hydroxy-pyrrolidine-2-carbonyl]amino]ethylcarbamoyl]-3-methyl-phenyl]-1-methyl-imidazole-2-carboxamide;formic acid] | 1100 nM
11 | COc1ccc(-c2cnc(C(=O)Nc3ccc(C(=O)NC4CCN(C(=O)CN(C)C)CC4)c(Cl)c3)n2C)c(F)c1F [Example A25, N-[3-chloro-4-[[1-[2-(dimethylamino)acetyl]-4-piperidyl]carbamoyl]phenyl]-5-(2,3-difluoro-4-methoxy-phenyl)-1-methyl-imidazole-2-carboxamide] | 130 nM
